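Five concentrations, 48 hours, 96-well plates. The concentration for 50% growth inhibition is given as GI50. At the TGI there is no net growth.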 Where a SMILES comes first, the peptide text is derived from it. The star is where a group is joined. Palmitoyl = CCCCCCCCCCCCCCCC(=O)*
How the values were obtained:
Assay in all cases: NCI tumour cell line growth inhibition, 48 h
NCI/ADR-RES ovarian = system: NCI/ADR-RES ovarian
DLD-1 colon = system: DLD-1 colon
DMS 114 small cell lung = system: DMS 114 small cell lung
SNB-78 CNS = system: SNB-78 CNS
XF 498 CNS = system: XF 498 CNS
RXF-631 renal = system: RXF-631 renal
P388 leukemia = system: P388 leukemia
P388/ADR leukemia = system: P388/ADR leukemia
SN12K1 renal = system: SN12K1 renal

Row | Structure (SMILES) | TGI (NCI/ADR-RES ovarian) | TGI (DLD-1 colon) | TGI (DMS 114 small cell lung) | TGI (SNB-78 CNS) | TGI (XF 498 CNS) | further results
1 | CON(C)c1nc(N(C)OC)nc(N(C)OC)n1 | > 10 µM |  |  |  |  | 
2 | Nc1nc(O)c2ncn([C@H]3CC[C@@H](CO)O3)c2n1 | > 100 µM |  |  |  |  | 
3 | COC(=O)C1=C(OC(=O)/C(=C/c2ccc(Cl)cc2)c2ccc(Cl)cc2)C(C(=O)OC)[C@]2(O)[C@@H](C(=O)OC)[C@H]1C[C@@H](c1ccccc1)[C@@H]2C(=O)OC (stereo partly drawn) | > 100 µM |  |  |  |  | 
4 | CC(N)Cc1ccc(Cl)c(Cl)c1 (stereo not drawn) |  | > 100 µM | 48.1 µM | > 100 µM | 23.7 µM | 
5 | C/C(=N/N=C(\[O-])c1ccncc1)C(F)(F)F.C/C(=N\N=C(/[O-])c1ccncc1)C(F)(F)F.[Ni+2] | > 1 µM |  |  |  |  | GI50 (NCI/ADR-RES ovarian): > 1 µM
6 | COc1cc(C(C)O)c[n+](Cc2ccccc2)c1 (stereo not drawn) |  | > 100 µM | > 100 µM | > 100 µM | > 31.6 µM | TGI (RXF-631 renal): > 100 µM
7 | Nc1[nH]c(=O)nc2c1cnn2C1CCCCO1 (stereo not drawn) |  | > 100 µM |  | > 100 µM | > 100 µM | TGI (RXF-631 renal): > 100 µM
8 | CC(C)C(C(=O)O)N1C(=O)c2ccccc2C1=O (stereo not drawn) | > 100 µM |  |  |  |  | 
9 | CCN1CCC(O)(/C=C/c2ccccc2C)C(C(=O)/C=C/c2ccccc2C)C1 (stereo not drawn) | 12.7 µM |  |  |  |  | 
10 | CC12C=CC(=O)C=C1CCC1C3CCC(O)(C(=O)CO)C3(C)CC(O)C12F (stereo not drawn) | > 100 µM | > 100 µM | > 100 µM | > 100 µM | > 100 µM | 
11 | CN1C(c2ccccc2)CC(=O)C(N)C1c1ccccc1 (stereo not drawn) |  | > 100 µM |  | 69.7 µM | 28.1 µM | 
12 | CCCC1CCC(=C2C(=O)CCC2=O)O1 (stereo not drawn) | > 100 µM |  |  |  |  | 
13 | C=C(C)C1Cc2c(c3ccccc3n(C)c2=O)O1 (stereo not drawn) |  | > 100 µM | > 100 µM | > 100 µM |  | TGI (RXF-631 renal): > 100 µM
14 | CCCCCCCCCCCCCCCC(=O)N1CCCC1C(=O)NCC(=O)NC(Cc1ccccc1)C(=O)NC(C)C(=O)NC(CO)C(=O)NC(Cc1ccc(O)cc1)C(=O)NC(CCCCN)C(=O)NC(CC(C)C)C(=O)NC(CCCN=C(N)N)C(=O)N1CCCC1C(=O)NCC(N)=O (stereo not drawn) (Palmitoyl-PGFASYKLRPG-NH2; configuration not given here) | 35 µM |  |  |  |  | GI50 (NCI/ADR-RES ovarian): 16.2 µM
15 | Cn1c(-c2ccccc2)cc(-c2cccs2)c1-c1cccs1 | > 100 µM | > 100 µM | > 100 µM | > 100 µM | > 100 µM | TGI (P388 leukemia): > 100 µM; TGI (P388/ADR leukemia): > 100 µM; TGI (SN12K1 renal): > 41.9 µM

— PubChem BioAssay (NCI)
